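Method: 48-hour compound exposure of cells in 96-well plates, five concentrations, linear interpolation of endpoints. GI50: concentration for 50% inhibition of growth. TGI denotes the concentration required for complete inhibition of growth.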
What was measured:
Experiment in all cases: NCI tumour cell line growth inhibition, 48 h
[1] = test system: BT-549 breast
[2] = test system: RPMI-8226 leukemia
[3] = test system: SW-620 colon
[4] = test system: SNB-75 CNS
[5] = test system: A498 renal
[6] = test system: NCI-H226 lung
[7] = test system: OVCAR-5 ovarian
[8] = test system: UACC-257 melanoma
[9] = test system: UO-31 renal
[10] = test system: MOLT-4 leukemia
[11] = test system: MDA-MB-231 breast
[12] = test system: OVCAR-4 ovarian
[13] = test system: MDA-MB-468 breast
[14] = test system: NCI-H23 lung
[15] = test system: KM12 colon
[16] = test system: SF-295 CNS
[17] = test system: HT29 colon
[18] = test system: HOP-62 NSCLC
[19] = test system: OVCAR-3 ovarian
[20] = test system: SK-MEL-5 melanoma
[21] = test system: NCI-H522 lung
[22] = test system: TK-10 renal
[23] = test system: MCF7 breast
[24] = test system: MDA-MB-435
[25] = test system: SK-MEL-2 melanoma
[26] = test system: NCI/ADR-RES ovarian
[27] = test system: OVCAR-8 ovarian
[28] = test system: CAKI-1 renal
[29] = test system: 786-0 renal
[30] = test system: SN12C renal
[31] = test system: M14 melanoma
[32] = test system: SK-MEL-28 melanoma
[33] = test system: ACHN renal
[34] = test system: HCT-116 colon
[35] = test system: SF-539 CNS
[36] = test system: HCC-2998 colon
[37] = test system: U251 CNS
[38] = test system: SK-OV-3 ovarian
[39] = test system: MALME-3M melanoma
[40] = test system: SF-268 CNS
[41] = test system: T-47D breast
[42] = test system: PC-3 prostate
[43] = test system: EKVX NSCLC
[44] = test system: UACC-62 melanoma
[45] = test system: CCRF-CEM leukemia
[46] = test system: HCT-15 colon
[47] = test system: RXF 393 renal
[48] = test system: SR leukemia
[49] = test system: IGROV1 ovarian
[50] = test system: HOP-92 NSCLC
[51] = test system: LOX IMVI melanoma
[52] = test system: SNB-19 CNS
[53] = test system: NCI-H460 lung
[54] = test system: HL-60(TB) leukemia
[55] = test system: HS 578T breast
[56] = test system: K-562 leukemia
[57] = test system: DU-145 prostate

What does the source list for `C=C(C)[C@@H]1CC[C@]2(C(=O)OC)CC[C@]3(C)[C@H](CC[C@@H]4[C@@]5(C)CC[C@H](N)C(C)(C)[C@@H]5CC[C@]43C)[C@@H]12`?
GI50 [1]: 2.47 µM; TGI [1]: 5.59 µM; GI50 [2]: 2.72 µM; TGI [2]: 8.81 µM; GI50 [3]: 1.14 µM; TGI [3]: 2.49 µM; GI50 [4]: 1.48 µM; TGI [4]: 2.92 µM; GI50 [5]: 1.45 µM; TGI [5]: 2.78 µM; GI50 [6]: 1.94 µM; TGI [6]: 3.77 µM; GI50 [7]: 1.69 µM; TGI [7]: 3.13 µM; GI50 [8]: 1.89 µM; TGI [8]: 4.02 µM; GI50 [9]: 1.51 µM; TGI [9]: 2.84 µM; GI50 [10]: 2.5 µM; TGI [10]: 6.02 µM; GI50 [11]: 1.78 µM; TGI [11]: 3.19 µM; GI50 [12]: 1.83 µM; TGI [12]: 3.58 µM; GI50 [13]: 1.77 µM; TGI [13]: 3.26 µM; GI50 [14]: 1.78 µM; TGI [14]: 3.31 µM; GI50 [15]: 1.77 µM; TGI [15]: 3.31 µM; GI50 [16]: 1.7 µM; TGI [16]: 3.13 µM; GI50 [17]: 1.83 µM; TGI [17]: 3.51 µM; GI50 [18]: 1.83 µM; TGI [18]: 3.55 µM; GI50 [19]: 1.49 µM; TGI [19]: 2.9 µM; GI50 [20]: 1.93 µM; TGI [20]: 3.79 µM; GI50 [21]: 1.75 µM; TGI [21]: 3.39 µM; GI50 [22]: 1.89 µM; TGI [22]: 3.47 µM; GI50 [23]: 1.05 µM; TGI [23]: 2.34 µM; GI50 [24]: 1.62 µM; TGI [24]: 3.1 µM; GI50 [25]: 2.04 µM; TGI [25]: 4.3 µM; GI50 [26]: 1.85 µM; TGI [26]: 3.51 µM; GI50 [27]: 2.04 µM; TGI [27]: 4.4 µM; GI50 [28]: 1.62 µM; TGI [28]: 3.02 µM; GI50 [29]: 1.7 µM; TGI [29]: 3.33 µM; GI50 [30]: 1.75 µM; TGI [30]: 3.27 µM; GI50 [31]: 1.99 µM; TGI [31]: 4.28 µM; GI50 [32]: 1.68 µM; TGI [32]: 3.08 µM; GI50 [33]: 1.7 µM; TGI [33]: 3.07 µM; GI50 [34]: 1.48 µM; TGI [34]: 3.26 µM; GI50 [35]: 1.63 µM; TGI [35]: 3 µM; GI50 [36]: 1.65 µM; TGI [36]: 3.07 µM; GI50 [37]: 1.75 µM; TGI [37]: 3.27 µM; GI50 [38]: 2.22 µM; TGI [38]: 5.45 µM; GI50 [39]: 1.71 µM; TGI [39]: 3.09 µM; GI50 [40]: 1.81 µM; TGI [40]: 3.49 µM; GI50 [41]: 1.88 µM; TGI [41]: 3.82 µM; GI50 [42]: 1.89 µM; TGI [42]: 4.07 µM; GI50 [43]: 1.83 µM; TGI [43]: 3.32 µM; GI50 [44]: 1.77 µM; TGI [44]: 3.24 µM; GI50 [45]: 1.8 µM; TGI [45]: 4.68 µM; GI50 [46]: 1.64 µM; TGI [46]: 3.05 µM; GI50 [47]: 1.58 µM; TGI [47]: 3.07 µM; GI50 [48]: 0.379 µM; TGI [48]: 3.05 µM; GI50 [49]: 1.74 µM; TGI [49]: 3.18 µM; GI50 [50]: 1.58 µM; TGI [50]: 3.13 µM; GI50 [51]: 1.33 µM; TGI [51]: 2.64 µM; GI50 [52]: 1.72 µM; TGI [52]: 3.24 µM; GI50 [53]: 1.43 µM; TGI [53]: 2.86 µM; GI50 [54]: 1.44 µM; TGI [54]: 3.83 µM; GI50 [55]: 2 µM; TGI [55]: 4.29 µM; GI50 [56]: 0.711 µM; TGI [56]: 12.7 µM; GI50 [57]: 1.85 µM; TGI [57]: 3.37 µM

From PubChem BioAssay (NCI)
